Laboratory results from US20220267394A1, “COMPOUNDS FOR INDUCING TISSUE FORMATION AND USES THEREOF” (HISTIDE AG, priority 2015, published 2022).
Where no end group is shown, it is not given here.

Tested on: hMSCs
Experiment: Loss of stemness: STRO-1 expression by immunostaining
Assay type: cell-based, human
Description: The cells were first fixed for 20 min with 4% paraformaldehyde/PBS at 4° C. After fixation, the cells were permeabilized in PBS containing 1% Triton X-100 for 15 min. Runx2, Osterix, Stro-1, Vinculin, Phalloidin, Osteopontin, Sox2, Sox9 antibodies were visualized by treating the cells with 1% (v/v) specific monoclonal antibodies for 1 hour at 37° C. Then the samples were incubated with Alexa Fluor® 568 or 647 (F(ab′)2 fragment of IgG(H+L)) during 30 min at room temperature. The cell nuclei were counterstained in 20 ng/mL DAPI for 10 min at room temperature.
For this type of quantification the freeware image analysis ImageJ® software was used. The raw image was first converted to an 8-bit file, and then the unsharp mask feature was used (settings 1:0.2) to remove the image background (rolling ball radius 10). After smoothing, the resulting image, which appears similar to the original photomicrograph but with minimal background, was then converted to a binary image by setting a threshold. Threshold values were determined empirically by selecting a setting, which gave the most accurate binary image for a subset of randomly selected photomicrographs. The cell area was determined by manual delineation on raw fluorescent images. Total contact area and mean contact area per cell were calculated by “analyse particules” in ImageJ®. A minimum of 30 cells per condition were analyzed. Stro-1, CD-34+, and CD-105 expressions were determined using this procedure.
hMSCs were cultured on conventional cell culture plastic plates with or without the presence in the cell culture media of different GFR-binding compounds as described herein (SEQ ID NO: 50 to 88) in solution. […] This was probed by Stro-1 immunostaining after cell fixation as described in the Methods section. The quantification of Stro-1 positive contact numbers and areas was performed as described in the Methods section. A minimum of 30 cells per condition were analyzed. Stro-1 positive marrow cells are multipotential and capable of differentiating into multiple mesenchymal lineages including stromal cells with a phenotype resembling vascular smooth muscle cells that can support hematopoiesis, adipocytes, osteoblasts, and chondrocytes.
Using the method detailed in the description, the RMSD of 57 previously reported peptide sequences have been determined (Table 6) and correlated with the expression of STRO-1 in solution. […] One should note that it is commonly admitted that the expression of STRO-1 in a cell is indicative of a cell that is in a substantially non-differentiated state and the decrease of its expression of at least about 20% is indicative of a cell that has started a process of differentiation but which may not result in the differentiation of the cell. A decrease of more than 50% would be indicative of the presence of a significant shift towards a differentiated state. A decrease of more than 70% would be indicative of the presence of a very important shift towards a differentiated state. A sustained decrease (e.g. for at least 96 h) of more than 50% or 70% would be indicative of the presence of an even more important shift towards a differentiated state.
Likewise, using the method detailed in the description, the RMSD of 75 GFR-binding peptide sequence representatives of the invention have been determined (Table 8) and correlated with the expression of STRO-1. SEQ ID NO: 1 to 49 were tested in combination with a bioactive carrier as defined above in the Examples Section (i.e. titanium, ceramics, collagen, etc. . . . ), whereas SEQ ID NO: 2242 to 2267 were tested in solution.

[1] = Table 8, SEQ ID NO: 1 to 49 tested in combination with a bioactive carrier (titanium, ceramics, collagen, etc.)
[2] = Table 6, previously reported peptides in solution, 400 ng/mL
[3] = Table 8, SEQ ID NO: 2242 to 2267 tested in solution

| Substance | STRO-1 expression (%) [1] [%] | STRO-1 expression (%) [2] [%] | also measured |
| --- | --- | --- | --- |
| 13 (CSIPKASSVPTELSATSVLYYDEYDEKVVLRKHEMVVEG; not fully specified; ends and bridges not checked) [compound 13] | 23 | – | – |
| 2192 (SFRTARANAPTGRSSLSGEKEQQEASTHS; Peptide reported in WO2013040142, SEQ ID NO:3136558) [compound 2192] | – | 91 | – |
| 26 (GTPGPASSAVSQELSAISMLYLGGGLKNYQDM; GFR-binding peptide) [compound 26] | 22 | – | – |
| 2202 (CPKPSSAPTELSAISMLL; Peptide reported in WO2009151288, SEQ ID NO:3) [compound 2202] | – | 79 | – |
| 18 (CKVGKASSVPTKLNAISTLYLDENEKVVLKKYREGMS; not fully specified; ends and bridges not checked) [compound 18] | 19 | – | – |
| 2251 (APVAAKPLSMLYVDKGVVTYDHHKDAAVEE; GFR-binding peptide) [compound 2251] | – | – | STRO-1 expression (%) [3]: 22% |
| 2253 (VPQQQEPLTTLYYDEYDKVVEQLSNQQVKS; GFR-binding peptide) [compound 2253] | – | – | STRO-1 expression (%) [3]: 18% |
| 17 (CASAAPSSVPQKLNAISMLYFVGRKPKVLKKYRMIVRS; not fully specified; ends and bridges not checked) [compound 17] | 21 | – | – |
| 28 (GTPGPAPTKLSAISMLYLDSSNNVILKKYR; GFR-binding peptide) [compound 28] | 19 | – | – |
| 44 (CAAPASSSVPARLSPISILYIDAANNVVYKQYEDMVVE; not fully specified; ends and bridges not checked) [compound 44] | 27 | – | – |
| 30 (GTPGPKASSVPTELSPISTLYKDENEKVVLKYHYDM; GFR-binding peptide) [compound 30] | 18 | – | – |
| 47 (CAAAPASXXVPARLSPISILYIAAAYKQYEDM; GFR-binding peptide; MOD_RES (8), (9): Xaa is C or S) [compound 47] | 18 | – | – |
| 6 (CAVPKAXXAPTKLSATSVLYYDSSNNVVLRKHRNMVVK; GFR-binding peptide; MOD_RES (7), (8): Xaa is C or S) [compound 6] | 26 | – | – |
| 2247 (VPTSSSPISTLYIDKGVVTYLKYHYSSVAE; GFR-binding peptide) [compound 2247] | – | – | STRO-1 expression (%) [3]: 20% |
| 27 (GTPGPAPTKLSAISMLYLDSSNNVILRKHR; GFR-binding peptide) [compound 27] | 19 | – | – |
| 2191 (ANINKDRDNVPAATSSLSKAYNP; Peptide reported in WO2013040142, SEQ ID NO:2326359) [compound 2191] | – | 92 | – |
| 2209 (MRTESTPTTASAISYECLWSPPSNEAAKLHFDS; Peptide reported in US20070083334, SEQ ID NO:966410) [compound 2209] | – | 94 | – |
| 2195 (MALPQPRGSSLSKAPVVVAPCMALKRVNIRSIVFEVLKTMNQNCIHETPN; Peptide reported in US20130333061, SEQ ID NO:158498) [compound 2195] | – | 82 | – |
| 2188 (SSVPAVCSATSATGPYSSGSVEVTFDVYATTVY; Peptide reported in EP1687419, SEQ ID NO:45) [compound 2188] | – | 92 | – |
| 9 (CRNVQCRPTQVQLSAISTLYLEIVRKKPLKNYQTLEDH; GFR-binding peptide) [compound 9] | 19 | – | – |
| 2179 (TLXPIVSSXNPSPISFRXIKILLHDLEVVPFPKSRVR; Peptide reported in US20040031072, SEQ ID NO:272830; MOD_RES (3), (9), (18): Xaa is A) [compound 2179] | – | 84 | – |
| 2212 (CCAPTQLSAISVLYFDDSSNVILKKYRNMVVRACGCR; Comparative sequence) [compound 2212] | – | 82 | – |
| 12 (CKVPKASSVPTELSAISTLYLAAAALKNYQEM; GFR-binding peptide) [compound 12] | 28 | – | – |

| Substance | STRO-1 expression (%) [1] [%] | STRO-1 expression (%) [2] [%] | also measured |
| --- | --- | --- | --- |
| 2185 (LGIAAIIFLQQVPAAFSATSPPG; Peptide reported in WO2013040142, SEQ ID NO:1139935) [compound 2185] | – | 97 | – |
| 2168 (MSRVLFEPLTFLQTGSGLPDEKTLG; Peptide reported in US20080081768, SEQ ID NO:28800) [compound 2168] | – | 94 | – |
| 2207 (CKIPKPSSAPTELSAISMLYL; Peptide reported in WO2009151288, SEQ ID NO:1) [compound 2207] | – | 78 | – |
| 2246 (APTGGSATSMLYYDKGVVTYLRKHRGGVVK; GFR-binding peptide) [compound 2246] | – | – | STRO-1 expression (%) [3]: 23% |
| 15 (CASSAVSQELSAISMLYLGGGLKNYQDM; GFR-binding peptide) [compound 15] | 21 | – | – |
| 7 (CTVPKPXXAPTQLSPISVLYKDDSSNVILKYHYNMVVRAXGXH; GFR-binding peptide; MOD_RES (7), (8), (40), (42): Xaa is C or S) [compound 7] | 18 | – | – |
| 2245 (APTLLNAISMLYFNDKQQIILKKYRLLVVR; GFR-binding peptide) [compound 2245] | – | – | STRO-1 expression (%) [3]: 22% |
| 2165 (LMDLARMPSCLRGERAVPQDTTGYFTWSSNITPLNFIF; Peptide reported in US20110300149, SEQ ID NO:32) [compound 2165] | – | 92 | – |
| 22 (WWFWGKVPKPSSAPTQLSAISTLYLDEYDKVVLKNYQNMVVR; not fully specified; ends and bridges not checked) [compound 22] | 17 | – | – |
| 2243 (VPEAASSLSMLFFEIVRKKPIFLKVYPAATVE; GFR-binding peptide) [compound 2243] | – | – | STRO-1 expression (%) [3]: 19% |
| 2199 (APTQLSAISVL; Peptide reported in US20050250936, SEQ ID NO:71) [compound 2199] | – | 93 | – |
| 2259 (TQVAARPVQTRKIDDMGVPTKKATVAAEDH; GFR-binding peptide) [compound 2259] | – | – | STRO-1 expression (%) [3]: 23% |
| 2198 (APTKLNAISVLYFDDSSNVILKKYRNMIVKS; Peptide reported in US20120244575, SEQ ID NO:4530) [compound 2198] | – | 84 | – |
| 41 (CGIPEPSSVPEKMSSLSILFFDENKNVVLKVYPNM; not fully specified; ends and bridges not checked) [compound 41] | 22 | – | – |
| 25 (GTPGPAPTQLSPISVLYKDDSSNVILKYHY; GFR-binding peptide) [compound 25] | 23 | – | – |
| 21 (CGGGSSVPTELSAISTLYLDDYDKVILKKYRNM; GFR-binding peptide) [compound 21] | 14 | – | – |
| 2254 (VPTMMSNITTQIMRIKPHQGQHIGEMSMMQHN; GFR-binding peptide) [compound 2254] | – | – | STRO-1 expression (%) [3]: 19% |
| 36 (CKIPKASSVPTELEPLPIVYYVGRKPKVEQLSNMIVRS; not fully specified; ends and bridges not checked) [compound 36] | 19 | – | – |
| 39 (CVPTEESNITMQIMRIKPHQGQHIGEMSFL; GFR-binding peptide) [compound 39] | 16 | – | – |
| 2267 (ASASPSSVSQDLRSVKVAKVIGKTPKIKEVQVMIVKSSKSS; GFR-binding peptide) [compound 2267] | – | – | STRO-1 expression (%) [3]: 34% |
| 46 (CPARLSPISLLYIDAANNVVYKQYEDM; GFR-binding peptide) [compound 46] | 19 | – | – |
| 2 (CKVGKASSVPTKLSAISTLYLDDMGVPTLKNYQNMVVRASGSH; not fully specified; ends and bridges not checked) [compound 2] | 21 | – | – |
| 2208 (AETLHTLGLSAPVIESAISDAI; Peptide reported in WO2013040142, SEQ ID NO:629725) [compound 2208] | – | 93 | – |
